Consider four compounds from US11020352B2, “Systems and methods for the fabrication of tablets, including pharmaceutical tablets” (Massachusetts Institute of Technology, priority 2017, dated 2021).

Series [1] can be described thus: Particle size of API and excipients. The class given is physicochemical. The note with it: API/excipient powder. From the text:
Microscopy images showing the morphology of IBU and DIZ particles are shown in FIGS. 29A and 29B, respectively. IBU and DIZ both are fine particles with a d50 of 21.87 μm and 23.12 μm, respectively.

Series [2] in a line: Bulk and flow properties of powders (FT4 Powder Rheometer). It is filed as physicochemical. The note with it: API/excipient powder.

`CC(C)Cc1ccc(C(C)C(=O)O)cc1` (centres unmarked) [Ibuprofen (IBU), Ibuprofen, reference compound]: in series [1], the “Particle size d10” value was 4.86 μm, the “Particle size d50” value is 21.87 μm and the “Particle size d90” value amounted to 75.31 μm. For the same compound, in series [2], the Bulk density came to 0.53 g/mL, the Compressibility amounted to 25.07% and the “Flow function coefficient (ffc)” value amounted to 3.87.

Regarding `OC[C@H]1O[C@@H](O[C@H]2[C@H](O)[C@@H](O)C(O)O[C@@H]2CO)[C@H](O)[C@@H](O)[C@H]1O` (some centres unmarked) [Anhydrous lactose], in series [1], the “Particle size d10” value was 26.03 μm, the “Particle size d50” value is 188.75 μm and the “Particle size d90” value is 425.90 μm. Further, in series [2], the Bulk density is 0.74 g/mL, the Compressibility is given as 13.10% and the “Flow function coefficient (ffc)” value amounted to 5.69.

As to `CN1C(=O)CN=C(c2ccccc2)c2cc(Cl)ccc21` [Diazepam (DIZ), Diazepam, reference compound], in series [1], the “Particle size d10” value is given as 5.74 μm, the “Particle size d50” value is 23.12 μm and the “Particle size d90” value is 110.75 μm. For the same compound, in series [2], the Compressibility worked out at 32.73% and the “Flow function coefficient (ffc)” value is 2.78.

Turning to Magnesium stearate, in series [1], the “Particle size d10” value is 2.76 μm, the “Particle size d50” value is 6.86 μm and the “Particle size d90” value came out at 15.10 μm. For the same compound, in series [2], the Bulk density was determined as 0.31 g/mL, the Compressibility worked out at 38.97% and the “Flow function coefficient (ffc)” value amounted to 5.18.
